In brackets after ≈: the same amount, converted by molar mass. Several values for one entry are separate records, joined by “and”; a condition that tells them apart may be missing. Equal entries are not always repeated. Where two headings read alike, the source gives them in different places. Marks after values point to notes of the source that are not given here.
Key:
[1] = tested on: SK-OV-3; test: cells; type: cell-based, human
[2] = physchem; settings: pH 7.4
[3] = physchem; settings: pH 7.4; remark: listed apart in the source
[4] = in vitro; type: in vitro ADME, mouse; settings: male, CD1, mouse, microsomes, pH 7.4; n = 1, fraction unbound assumed 1; read-out: Microsome Clint, mouse (MLM)
[5] = in vitro; type: in vitro ADME; settings: male, Sprague Dawley, rat, microsomes, pH 7.4; n = 1, fraction unbound assumed 1; read-out: Microsome Clint, rat (RLM)
[6] = in vitro; type: in vitro ADME; settings: both sexes, human, microsomes, pH 7.4; n = 1, fraction unbound assumed 1; read-out: Microsome Clint, human (HLM)
[7] = iv PK in CF1 wild-type and P-gp-knockout mice; type: in vivo, mouse; settings: mouse, whole blood, iv, 5 mg/kg, read-out: Vss
[8] = tested on: P-gp; test: iv PK in CF1 wild-type and P-gp-knockout mice; type: in vivo, mouse; settings: 5 mg/kg iv, 90% CI
[9] = Mouse blood PK (BALB/c); settings: for iv Cltb / Free Cav^0–24h / CLu / Vdu / AUC / Fmax: BALB/c mice; for iv Cltb: iv 5 mg/kg (18: 1 mg/kg); for Free Cav^0–24h: AUC^inf/24*fub; for CLu: CLtb/fub; for Vdu: Vss/fub; for Vd / half-life at 24 h: iv
[10] = Plasma protein binding and blood-to-plasma ratio; settings: for fub: BALB/c mouse blood, fub = fup/B:P; for Plasma, fup: BALB/c mouse, 90% CI
[11] = in vitro; type: in vitro ADME; settings: mouse; for hepatocyte CLint at 1 h, 1 µM: hepatocytes, n = 1, read-out: Mouse Heps CLint; for Pred. in vivo CLu from Heps: fraction unbound in assay assumed 0.4 or 0.2
[12] = Free fraction in CellTiter-Blue assay medium (dialysis); type: in vitro ADME; settings: dialysis from CellTiter-Blue assay medium; 90% CI
[13] = for FaSSGF Concentration, replicates 1-3: pH 1.6, individual replicates; for FaSSIF Concentration, replicates 1-3 / FeSSIF Concentration, replicates 1-3: pH 6.5, individual replicates
[14] = physchem
[15] = Homo sapiens, SK-OV-3, 96 h; read-out: SK-OV-3 pGI50 ± SEM (n) (converted)
[16] = Homo sapiens, SK-OV-3; 96 h, CellTiter-Blue, geometric mean; read-out: SK-OV-3 GI50
[17] = female, BALB/c, mouse, in vivo, po, 5 mg/kg
[18] = female, BALB/c, mouse, in vivo, po, 5 mg/kg, AUCu^0–6h, AUC*fub
[19] = female, BALB/c, mouse, in vivo, po, 5 mg/kg, po AUC^0–6h, po 5 mg/kg, 90% CI
[20] = female, BALB/c, mouse, whole blood, po, 5 mg/kg
[21] = pH 1.6, Thermodynamic solubility FaSSGF (mean), pH 1.6, 37 °C, 1 mg/mL (top limit of assay)
[22] = pH 6.5, Thermodynamic solubility FaSSIF (mean), pH 6.5, 37 °C, 1 mg/mL

Cc1ccc(NC(=O)c2ccc3c(c2)OCCO3)cc1NC(=O)c1ccc2nc(CN3CCCC3C)ccc2c1 (racemic) [Compound 13, Racemic-N-(5-(2,3-Dihydrobenzo[b][1,4]dioxine-6-carboxamido)-2-methylphenyl)-2-((2-methylpyrrolidin-1-yl)methyl)quinoline-6-carboxamide]
GI50 [1, 15]: 7.08 nM | GI50 [1, 16]: 7.1 nM | chromatographic logD [2]: 2.3 | solubility kinetic at 2 h, 100 µM [3]: 50 µM (≈ 26.8 µg/mL)

Cc1ccc(NC(=O)c2ccc3c(c2)OCCO3)cc1NC(=O)c1ccc2nc(CN3CCCC3)ccc2c1 [Compound 11, N-(5-(2,3-Dihydrobenzo[b][1,4]dioxine-6-carboxamido)-2-methylphenyl)-2-(pyrrolidin-1-ylmethyl)quinoline-6-carboxamide]
GI50 [1, 15]: 6.17 nM | GI50 [1, 16]: 6.2 nM | microsomal CLint [4]: 21 µL/min/mg | microsomal CLint at 0.75 h, 1 µM [5]: 20 µL/min/mg | microsomal CLint at 0.75 h, 1 µM [6]: 23 µL/min/mg | chromatographic logD [2]: 1.9 | solubility kinetic at 2 h, 100 µM [3]: 40 µM (≈ 20.9 µg/mL)

Cc1ccc(NC(=O)c2ccc3c(c2)OCCO3)cc1NC(=O)c1ccc2nc(CN(C)C)ccc2c1 [Compound 12, N-(5-(2,3-Dihydrobenzo[b][1,4]dioxine-6-carboxamido)-2-methylphenyl)-2-((dimethylamino)methyl)quinoline-6-carboxamide]
GI50 [1, 15]: 11.7 nM | GI50 [1, 16]: 12 nM | chromatographic logD [2]: 1.4 | solubility kinetic at 2 h, 100 µM [3]: 50 µM (≈ 24.8 µg/mL)

Cc1ccc(NC(=O)c2ccc3c(c2)OCCO3)cc1NC(=O)c1ccc2nc(CN3CCCCC3)ccc2c1 [Compound 14, N-(5-(2,3-Dihydrobenzo[b][1,4]dioxine-6-carboxamido)-2-methylphenyl)-2-(piperidin-1-ylmethyl)quinoline-6-carboxamide]
GI50 [1, 15]: 21.9 nM | GI50 [1, 16]: 73 nM | solubility kinetic at 2 h, 100 µM [3]: 2 µM (≈ 1.07 µg/mL)

Cc1ccc(NC(=O)c2ccc3c(c2)OCCO3)cc1NC(=O)c1ccc2nc(CN3CCN(C)CC3)ccc2c1 [Compound 15, N-(5-(2,3-Dihydrobenzo[b][1,4]dioxine-6-carboxamido)-2-methylphenyl)-2-((4-methylpiperazin-1-yl)methyl)quinoline-6-carboxamide]
GI50 [1, 15]: 9.55 nM | GI50 [1, 16]: 9.5 nM | microsomal CLint [4]: 21 µL/min/mg | microsomal CLint [5]: 33 µL/min/mg | microsomal CLint [6]: 33 µL/min/mg | chromatographic logD [2]: 1.6 | solubility kinetic at 2 h, 100 µM [3]: 80 µM (≈ 44.1 µg/mL)

Cc1ccc(NC(=O)c2ccc3c(c2)OCCO3)cc1NC(=O)c1ccc2nc(OCCN3CCCCC3)ccc2c1 [Compound 17, N-(5-(2,3-Dihydrobenzo[b][1,4]dioxine-6-carboxamido)-2-methylphenyl)-2-(2-(piperidin-1-yl)ethoxy)quinoline-6-carboxamide]
GI50 ([1]; Homo sapiens, SK-OV-3, 96 h, read-out: SK-OV-3 GI50): 1.1 nM | GI50 ([1]; Homo sapiens, SK-OV-3, 96 h, read-out: SK-OV-3 pGI50 ± SEM (n) (converted)): 1.07 nM | Vd ([7]; CF1 mdr1a P-gp deficient (CF1-Abcb1amds), CF1^PGP-KO mice): 3.6 L/kg | Vd ([7]; CF1 wild type, CF1^WT mice): 4.7 L/kg | Cltb ([8]; CF1^PGP-KO mice): 38 (43-37) mL/min/kg | Cltb ([8]; CF1^WT mice): 47 (62-35) mL/min/kg | iv Cltb ([9]; 90% CI): 40 (48–32) mL/min/kg | Free Cav^0–24h ([9]; po): 0.83 nM | CLu [9]: 2700 mL/min/kg | Vdu [9]: 340 L/kg | Tmax at 24 h [9, 17]: 2.3 h | bioavailability at 24 h [9, 17]: 24% | AUC [9, 18]: 0.012 µM·h | AUC [9, 19]: 0.83 µM·h | Vd ([9]; female, BALB/c, mouse, whole blood): 5.1 L/kg | Cmax [9, 20]: 180 nM | Tmax [9, 20]: 2 h | fub [10]: 0.015 | Plasma, fup [10]: 0.022 (0.027-0.017)

CC(C)N1CCN(Cc2ccc3cc(C(=O)Nc4cc(NC(=O)c5ccc6c(c5)OCCO6)ccc4Cl)ccc3n2)CC1 [Compound 18, N-(2-Chloro-5-(2,3-dihydrobenzo[b][1,4]dioxine-6-carboxamido)phenyl)-2-((4-isopropylpiperazin-1-yl)methyl)quinoline-6-carboxamide]
GI50 [1, 15]: 14.8 nM | GI50 [1, 16]: 15 nM | hepatocyte CLint at 1 h, 1 µM [11]: 28 µL/min/1e6 cells | Pred. in vivo CLu from Heps [11]: 930 ^i mL/min/kg | Assay medium, fua [12]: 0.16 (0.18-0.15) | chromatographic logD [2]: 2.3 | solubility kinetic at 2 h, 100 µM [3]: 70 µM (≈ 42 µg/mL) | Fmax [9]: 63% | iv Cltb ([9]; 90% CI): 33 (35–31) mL/min/kg | Free Cav^0–24h ([9]; po): 1.6 nM | CLu [9]: 3000 mL/min/kg | Vdu [9]: 450 L/kg | Vd ([9]; female, BALB/c, mouse, in vivo): 4.9 L/kg | half-life at 24 h ([9]; female, BALB/c, mouse, in vivo, 1 mg/kg): 2 h | Cmax [9, 17]: 550 nM | Tmax at 24 h [9, 17]: 1.7 h | bioavailability at 24 h [9, 17]: 63% | AUC [9, 18]: 0.026 µM·h | AUC [9, 19]: 2.4 µM·h | fub [10]: 0.011 | Plasma, fup [10]: 0.012 (0.014-0.010)

O=C(Nc1ccc(Cl)c(NC(=O)c2ccc3nc(CN4CCNCC4)ccc3c2)c1)c1ccc2c(c1)OCCO2 [Compound 19, N-(2-Chloro-5-(2,3-dihydrobenzo[b][1,4]dioxine-6-carboxamido)phenyl)-2-(piperazin-1-ylmethyl)quinoline-6-carboxamide]
GI50 [1, 15]: 11.5 nM | GI50 [1, 16]: 12 nM

CN1CCN(Cc2ccc3cc(C(=O)Nc4cc(NC(=O)c5ccc6c(c5)OCCO6)ccc4Cl)ccc3n2)CC1 [Compound 20, N-(2-Chloro-5-(2,3-dihydrobenzo[b][1,4]dioxine-6-carboxamido)phenyl)-2-((4-methylpiperazin-1-yl)methyl)quinoline-6-carboxamide]
GI50 [1, 15]: 19.1 nM | GI50 [1, 16]: 19 nM | chromatographic logD [2]: 2.1 | solubility kinetic at 2 h, 100 µM [3]: 30 µM (≈ 17.2 µg/mL)

CCN1CCN(Cc2ccc3cc(C(=O)Nc4cc(NC(=O)c5ccc6c(c5)OCCO6)ccc4Cl)ccc3n2)CC1 [Compound 21, N-(2-Chloro-5-(2,3-dihydrobenzo[b][1,4]dioxine-6-carboxamido)phenyl)-2-((4-ethylpiperazin-1-yl)methyl)quinoline-6-carboxamide]
GI50 [1, 15]: 11 nM | GI50 [1, 16]: 11 nM | hepatocyte CLint at 1 h, 1 µM [11]: 71 µL/min/1e6 cells | Pred. in vivo CLu from Heps [11]: 1400 ^i mL/min/kg | Assay medium, fua [12]: 0.15 (0.15-0.14) | chromatographic logD [2]: 2.2 | solubility kinetic at 2 h, 100 µM [3]: 50 µM (≈ 29.3 µg/mL) | Fmax [9]: 69% | Free Cav^0–24h ([9]; po): 1.3 nM | CLu [9]: 5300 mL/min/kg | Vdu [9]: 1100 L/kg | bioavailability ([9]; female, BALB/c, mouse, in vivo): 100% | Vd ([9]; female, BALB/c, mouse, in vivo): 5.7 L/kg | half-life at 24 h ([9]; female, BALB/c, mouse, in vivo, 5 mg/kg): 2.3 h | Cmax [9, 17]: 880 nM | Tmax at 24 h [9, 17]: 1.7 h | bioavailability [9, 17]: 96% | AUC [9, 18]: 0.02 µM·h | AUC [9, 19]: 3.9 µM·h | fub [10]: 0.0053 | Plasma, fup [10]: 0.013 (0.015-0.011)

O=c1[nH]c2ccccc2n1C1CCN(CCCC(c2ccc(F)cc2)c2ccc(F)cc2)CC1 [Pimozide]
FaSSGF Concentration, replicates 1-3 [13]: 0.087 mg/mL and 0.092 mg/mL and 0.090 mg/mL | FaSSIF Concentration, replicates 1-3 [13]: 0.004 mg/mL and 0.003 mg/mL | FeSSIF Concentration, replicates 1-3 [13]: 0.018 mg/mL and 0.008 mg/mL and 0.007 mg/mL | solubility thermodynamic [14, 21]: 90 µg/mL (≈ 195 µM) | solubility thermodynamic [14, 22]: 4 µg/mL (≈ 8.67 µM)

CC(C)NCC(O)COc1cccc2ccccc12 (stereo not drawn) [Propranolol]
FaSSGF Concentration, replicates 1-3 [13]: 1.246 mg/mL and 1.094 mg/mL and 1.002 mg/mL | FaSSIF Concentration, replicates 1-3 [13]: 0.853 mg/mL and 1.047 mg/mL and 0.931 mg/mL | FeSSIF Concentration, replicates 1-3 [13]: 1.669 mg/mL and 1.812 mg/mL and 1.465 mg/mL | solubility thermodynamic [14, 21]: 1110 µg/mL (≈ 4300 µM) | solubility thermodynamic [14, 22]: 944 µg/mL (≈ 3640 µM)

From PMC10150365 (Journal of Medicinal Chemistry, 2023)
